Laboratory results from PMC11187542, “Identification of fragments targeting SMYD3 using highly sensitive kinetic and multiplexed biosensor-based screening” (RSC Medicinal Chemistry, 2024).

What was measured:
[1] = biological target: T1, SMYD3 (apo, native) (Homo sapiens, UniProt Q9H7B4); test: GCI biosensor kinetic screening, apo SMYD3 surface; assay type: binding
T1 construct: Full length recombinant SMYD3 was produced as previously reported; made in house; host or cells: E. coli BL21(DE3), in some cases Rosetta 2
T1 sequence (Q9H7B4 1-428): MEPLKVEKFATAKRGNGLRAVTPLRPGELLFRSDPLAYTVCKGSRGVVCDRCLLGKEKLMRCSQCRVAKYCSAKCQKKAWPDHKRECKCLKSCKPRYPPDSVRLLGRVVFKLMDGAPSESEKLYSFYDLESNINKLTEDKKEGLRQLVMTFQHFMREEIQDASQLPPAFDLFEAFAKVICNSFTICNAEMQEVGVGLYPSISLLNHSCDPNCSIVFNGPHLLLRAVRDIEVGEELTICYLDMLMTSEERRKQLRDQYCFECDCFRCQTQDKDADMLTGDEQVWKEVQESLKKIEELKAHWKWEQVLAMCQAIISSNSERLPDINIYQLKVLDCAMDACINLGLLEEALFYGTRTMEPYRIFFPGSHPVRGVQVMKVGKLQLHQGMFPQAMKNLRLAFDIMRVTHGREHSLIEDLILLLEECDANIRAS
From the text: (§1) A multiplexed screening assay was set up with three different SMYD3 surfaces and a blank reference surface in flow channels 1–4 (FC1–FC4) (Fig. 2a), as described previously.[5] The apo SMYD3 surface detected fragments interacting anywhere on SMYD3, while a SMYD3 surface blocked by active site-specific tight-binding inhibitor EPZ031686 detected compounds binding elsewhere. The denatured surface served as a reference, detecting fragments binding to unfolded proteins, also potentially present to a significant degree in the other two surfaces.
After preparing the sensor surface and immobilising SMYD3, the functionality of the surface was assessed via analysis of interactions with the co-factor product S-adenosyl-homocysteine (SAH). It was used as a control in all experiments, confirming that sensor surfaces were intact. This was done using the novel multiple injection-based experimental design (Fig. 1) at 25 μM, i.e. in a weak binder mode (Fig. 2b).
(§2) The library was screened using the approach described in Fig. 1, i.e. injection of fragments at 250 μM for increasing durations of time in a single cycle, using a flow rate of 100 μL min^−1, data acquisition set to 40 Hz and with an association time of 5 s and dissociation of 20 s. Each fragment was addressed to all four channels and interactions with the native and blocked surfaces compared. The experimental conditions were chosen to ensure that the assay could reliably characterize the fast and transient interactions expected from typical fragments.
(§3) The kinetic screening of 1056 compounds was successfully completed in 72 hours. […] Hits were identified with full kinetic information using dissociation phases.
(§4) All interaction kinetic experiments were conducted with a GCI–flow-based biosensor (WAVEdelta, Creoptix AG/Malvern Panalytical) and PCH WAVEchip (Creoptix AG/Malvern Panalytical) sensor chips. The sensor chips were conditioned using injections of borate buffer (10 mM sodium tetraborate pH 8.5, 1 M NaCl). The running buffer composition, if not otherwise stated, was TBS buffer (50 mM Tris, 150 mM NaCl, 0.5 mM TCEP, 0.05% Tween 20, 1% DMSO, pH 8). SMYD3 was diluted to the desired concentration in 10 mM bis-Tris (pH 7.0) and amine coupled to the sensor surface of the PCH sensor chip. The sensor chip was functionalized at 25 °C by immobilising SMYD3 with EDC and NHS (Xantec) using an injection time of 420 s and a flow rate of 10 μL min^−1. The immobilisation levels ranged from 5000 pg mm^−2 to 18 500 pg mm^−2 surface mass to enable analysis of fragments spanning a broad range of affinities. After immobilization, the surface was deactivated with a running buffer containing 50 mM Tris for 420 s. The GCI data referencing and analysis were performed using WAVEcontrol V4.5 (Creoptix AG).
(§5) Kinetic measurements with controls and fragments were performed at 15 °C. Analysis of controls and follow up of hits was done using the multi cycle kinetic (MCK) injection of a concentration series for the same time, with a two-fold serial dilution starting at 250 μM for each compound. Solvent correction was performed ranging from 0.5–1.8% DMSO. Blank samples of the running buffer, 1× TBS (50 mM Tris, 150 mM NaCl, 0.5 mM TCEP, 0.05% Tween 20, 1% DMSO, pH 8), were injected during the measurements every fifth cycle. The experimental design illustrated in Fig. 1 was used for the screening against all four surfaces. The sensorgrams were adjusted to account for solvent correction and blank subtraction. Kinetic fitting was performed with the Direct Kinetics engine of WAVEcontrol software V4.5 (Creoptix AG) with a suitable fitting model.

[2] = biological target: T2, SMYD3 in complex with active site-specific tight-binding inhibitor EPZ031686 (Homo sapiens, UniProt Q9H7B4); test: GCI biosensor kinetic screening, active site blocked SMYD3 surface
T2 construct: Full length recombinant SMYD3 was produced as previously reported; made in house; host or cells: E. coli BL21(DE3), in some cases Rosetta 2
T2 sequence (Q9H7B4 1-428): T1 sequence (Q9H7B4 1-428)
From the text: as §1, §2, §3, §4, §5

LE (ligand efficiency) ([1]; LE = −RT ln(KD)/n): 0.63 (kcal^-1 mol^-1)/HA
Kd ([1]; initial kinetic screening, fragment 250 μM, 15 °C): 24.5 µM
kd ([1]; initial kinetic screening, fragment 250 μM, 15 °C, 1:1 model): 0.52 s⁻¹
kon at 250 µM ([1]; initial kinetic screening, fragment 250 μM, 15 °C, 1:1 model, read-out: ka): 21400 M⁻¹ s⁻¹
LE (ligand efficiency) ([2]; LE = −RT ln(KD)/n, blocked SMYD3 surface): 0.63 (kcal^-1 mol^-1)/HA
Kd ([2]; initial kinetic screening, fragment 250 μM, 15 °C, SMYD3 blocked by EPZ031686): 24 µM
kd ([2]; initial kinetic screening, fragment 250 μM, 15 °C, SMYD3 blocked by EPZ031686, 1:1 model): 0.83 s⁻¹
kon at 250 µM ([2]; initial kinetic screening, fragment 250 μM, 15 °C, SMYD3 blocked by EPZ031686, 1:1 model, read-out: ka): 34100 M⁻¹ s⁻¹
Compound: Cn1cnc(S(N)(=O)=O)c1 [FL06268]
